Data from US11154529B2, “Phosphaplatin liquid formulations” (Phosplatin Therapeutics Inc., priority 2016, dated 2021).

Columns and labels:
Format in all cases: physicochemical
[1] = Hydrolytic degradation of (R,R)-pyrodach-2 in aqueous solution; conditions: acidic aqueous conditions
From the text: Thus, simple dissolution of (R,R)-pyrodach-2 affords an acidic solution. […] At higher pHs, where the acid groups of (R,R)-pyrodach-2 are ionized, the solubility of (R,R)-pyrodach-2 increases. In addition, deprotonation of the acid groups in (R,R)-pyrodach-2 dramatically reduces the rate of hydrolytic degradation. The two pKa values of (R,R)-pyrodach-2 indicate that an aqueous solution of (R,R)-pyrodach-2 in the physiological pH range of 7.0-7.5 will have no buffering capacity. Thus, controlling the pH of an aqueous solution in the physiological pH range, much less the accurate and reproducible preparation of aqueous (R,R)-pyrodach-2 solutions in this pH range by pH adjustment of an aqueous solution of (R,R)-pyrodach-2 with hydroxide base, is extremely difficult. […] This presents a unique challenge as the pyrophosphate ligand in (R,R)-pyrodach-2 is kinetically labile in solution and can potentially undergo reaction with anions present in many buffers. Table 1 summarizes the decrease in potency measured by HPLC of aqueous 1 mg/mL (R,R)-pyrodach-2 solutions in a variety of buffers at ambient temperature.

[2] = Ready-to-use formulation stability at 2-8° C., 5 mg/mL (R,R)-pyrodach-2 in 10 mM Bicarbonate Buffer at pH 8.6, 10 mL vials
[3] = Precipitation of (R,R)-pyrodach-2 dimer from 5 mg/mL ready-to-use formulation on storage at 2-8° C.; conditions: 5 mg/mL formulation per Example 6, initial dimer ~0.6 area %
Procedure: • Transfer 4564.6 mg±0.5 mg of potassium phosphate dibasic, trihydrate to a 2-L volumetric flask. • Fill flask to approximately 75% volume with water, swirl as needed to dissolve all solids. • Volumetrically transfer 32.0 mL of 1N KOH to flask. • Dilute flask to volume with water and mix well. • Record pH of final solution. This is the diluent. • Transfer 7653.1 mg±0.5 mg of (R,R)-pyrodach-2 to a compounding vessel. • Transfer 1500 mL of the diluent to the vessel and stir to dissolve solids. • Record pH of final solution. • Pass entire solution through a 0.22 μm sterile filter membrane into a sterile collection vessel. • Calculate (R,R)-pyrodach-2 solution concentration

O=P1(O)OP(=O)(O)[O][Pt]2([NH][C@@H]3CCCC[C@H]3[NH]2)[O]1 (stereo partly drawn) [(R,R)-pyrodach-2, (R,R)-trans-1,2-cyclohexanediamine-(dihydrogenpyrophosphato)platinum(II)]
hydrolytic degradation [1]: rapidly undergoes hydrolytic degradation
Potency (Assay) ([2]; 1 month): 99.1%
Purity (% Area) ([2]; 1 month): 97.85%
Unknown Impurities RRT~0.29 ([2]; 1 month): 0.14%
Unknown Impurities RRT~0.35 ([2]; 1 month): ND (ND = Not Detected, or <0.05%)
Unknown Impurities RRT~0.41 ([2]; 1 month): 0.05%
Unknown Impurities RRT~0.49 ([2]; 1 month): 0.55%
Unknown Impurities RRT~0.59 ([2]; 1 month): 0.08%
Unknown Impurities RRT~0.73 ([2]; 1 month): 1.14%
Unknown Impurities RRT~1.51 ([2]; 1 month): ND (ND = Not Detected, or <0.05%)
Unknown Impurities RRT~2.82 ([2]; 1 month): ND (ND = Not Detected, or <0.05%)
Unknown Impurities RRT~3.44 ([2]; 1 month): ND (ND = Not Detected, or <0.05%)
pH ([2]; 1 month): 8.73
Potency (Assay) ([2]; 1 week): 101.9%
Purity (% Area) ([2]; 1 week): 98.02%
Unknown Impurities RRT~0.29 ([2]; 1 week): 0.10%
Unknown Impurities RRT~0.35 ([2]; 1 week): ND (ND = Not Detected, or <0.05%)
Unknown Impurities RRT~0.41 ([2]; 1 week): ND (ND = Not Detected, or <0.05%)
Unknown Impurities RRT~0.49 ([2]; 1 week): 0.60%
Unknown Impurities RRT~0.59 ([2]; 1 week): ND (ND = Not Detected, or <0.05%)
Unknown Impurities RRT~0.73 ([2]; 1 week): 1.11%
Unknown Impurities RRT~1.51 ([2]; 1 week): ND (ND = Not Detected, or <0.05%)
Unknown Impurities RRT~2.82 ([2]; 1 week): ND (ND = Not Detected, or <0.05%)
Unknown Impurities RRT~3.44 ([2]; 1 week): ND (ND = Not Detected, or <0.05%)
pH ([2]; 1 week): 8.57
Potency (Assay) ([2]; 2 month): 102.4%
Purity (% Area) ([2]; 2 month): 97.58%
Unknown Impurities RRT~0.29 ([2]; 2 month): 0.21%
Unknown Impurities RRT~0.35 ([2]; 2 month): ND (ND = Not Detected, or <0.05%)
Unknown Impurities RRT~0.41 ([2]; 2 month): 0.11%
Unknown Impurities RRT~0.49 ([2]; 2 month): 0.62%
Unknown Impurities RRT~0.59 ([2]; 2 month): 0.15%
Unknown Impurities RRT~0.73 ([2]; 2 month): 1.03%
Unknown Impurities RRT~1.51 ([2]; 2 month): ND (ND = Not Detected, or <0.05%)
Unknown Impurities RRT~2.82 ([2]; 2 month): ND (ND = Not Detected, or <0.05%)
Unknown Impurities RRT~3.44 ([2]; 2 month): 0.06%
pH ([2]; 2 month): 8.76
Potency (Assay) ([2]; 2 week): 100.5%
Purity (% Area) ([2]; 2 week): 97.99%
Unknown Impurities RRT~0.29 ([2]; 2 week): 0.12%
Unknown Impurities RRT~0.35 ([2]; 2 week): ND (ND = Not Detected, or <0.05%)
Unknown Impurities RRT~0.41 ([2]; 2 week): ND (ND = Not Detected, or <0.05%)
Unknown Impurities RRT~0.49 ([2]; 2 week): 0.63%
Unknown Impurities RRT~0.59 ([2]; 2 week): 0.06%
Unknown Impurities RRT~0.73 ([2]; 2 week): 1.14%
Unknown Impurities RRT~1.51 ([2]; 2 week): ND (ND = Not Detected, or <0.05%)
Unknown Impurities RRT~2.82 ([2]; 2 week): ND (ND = Not Detected, or <0.05%)
Unknown Impurities RRT~3.44 ([2]; 2 week): ND (ND = Not Detected, or <0.05%)
pH ([2]; 2 week): 8.65
Potency (Assay) ([2]; 3 month): 102.3%
Purity (% Area) ([2]; 3 month): 97.76%
Unknown Impurities RRT~0.29 ([2]; 3 month): 0.29%
Unknown Impurities RRT~0.35 ([2]; 3 month): ND (ND = Not Detected, or <0.05%)
Unknown Impurities RRT~0.41 ([2]; 3 month): 0.13%
Unknown Impurities RRT~0.49 ([2]; 3 month): 0.53%
Unknown Impurities RRT~0.59 ([2]; 3 month): 0.15%
Unknown Impurities RRT~0.73 ([2]; 3 month): 0.89%
Unknown Impurities RRT~1.51 ([2]; 3 month): 0.06%
Unknown Impurities RRT~2.82 ([2]; 3 month): 0.05%
Unknown Impurities RRT~3.44 ([2]; 3 month): ND (ND = Not Detected, or <0.05%)
pH ([2]; 3 month): 8.95
Potency (Assay) ([2]; 3 week): 100.0%
Purity (% Area) ([2]; 3 week): 97.91%
Unknown Impurities RRT~0.29 ([2]; 3 week): 0.14%
Unknown Impurities RRT~0.35 ([2]; 3 week): ND (ND = Not Detected, or <0.05%)
Unknown Impurities RRT~0.41 ([2]; 3 week): ND (ND = Not Detected, or <0.05%)
Unknown Impurities RRT~0.49 ([2]; 3 week): 0.56%
Unknown Impurities RRT~0.59 ([2]; 3 week): 0.07%
Unknown Impurities RRT~0.73 ([2]; 3 week): 1.11%
Unknown Impurities RRT~1.51 ([2]; 3 week): ND (ND = Not Detected, or <0.05%)
Unknown Impurities RRT~2.82 ([2]; 3 week): ND (ND = Not Detected, or <0.05%)
Unknown Impurities RRT~3.44 ([2]; 3 week): ND (ND = Not Detected, or <0.05%)
pH ([2]; 3 week): 8.67
Potency (Assay) ([2]; 4 month): 103.5%
Purity (% Area) ([2]; 4 month): 98.07%
Unknown Impurities RRT~0.29 ([2]; 4 month): 0.15%
Unknown Impurities RRT~0.35 ([2]; 4 month): ND (ND = Not Detected, or <0.05%)
Unknown Impurities RRT~0.41 ([2]; 4 month): 0.16%
Unknown Impurities RRT~0.49 ([2]; 4 month): 0.68%
Unknown Impurities RRT~0.59 ([2]; 4 month): 0.09%
Unknown Impurities RRT~0.73 ([2]; 4 month): 0.72%
Unknown Impurities RRT~1.51 ([2]; 4 month): 0.05%
Unknown Impurities RRT~2.82 ([2]; 4 month): 0.05%
Unknown Impurities RRT~3.44 ([2]; 4 month): ND (ND = Not Detected, or <0.05%)
pH ([2]; 4 month): 8.83
Potency (Assay) ([2]; 6 month): 100.4%
Purity (% Area) ([2]; 6 month): 97.56%
Unknown Impurities RRT~0.29 ([2]; 6 month): 0.23%
Unknown Impurities RRT~0.35 ([2]; 6 month): ND (ND = Not Detected, or <0.05%)
Unknown Impurities RRT~0.41 ([2]; 6 month): 0.23%
Unknown Impurities RRT~0.49 ([2]; 6 month): 0.65%
Unknown Impurities RRT~0.59 ([2]; 6 month): 0.21%
Unknown Impurities RRT~0.73 ([2]; 6 month): 0.90%
Unknown Impurities RRT~1.51 ([2]; 6 month): ND (ND = Not Detected, or <0.05%)
Unknown Impurities RRT~2.82 ([2]; 6 month): ND (ND = Not Detected, or <0.05%)
Unknown Impurities RRT~3.44 ([2]; 6 month): 0.09%
pH ([2]; 6 month): 8.84
Potency (Assay) ([2]; 9 month): 102.2%
Purity (% Area) ([2]; 9 month): 97.73%
Unknown Impurities RRT~0.29 ([2]; 9 month): 0.15%
Unknown Impurities RRT~0.35 ([2]; 9 month): ND (ND = Not Detected, or <0.05%)
Unknown Impurities RRT~0.41 ([2]; 9 month): 0.33%
Unknown Impurities RRT~0.49 ([2]; 9 month): 0.58%
Unknown Impurities RRT~0.59 ([2]; 9 month): 0.24%
Unknown Impurities RRT~0.73 ([2]; 9 month): 0.43%
Unknown Impurities RRT~1.51 ([2]; 9 month): 0.05%
Unknown Impurities RRT~2.82 ([2]; 9 month): 0.13%
Unknown Impurities RRT~3.44 ([2]; 9 month): 0.16%
pH ([2]; 9 month): 9.07
Potency (Assay) ([2]; 12 month): 100.3%
Purity (% Area) ([2]; 12 month): 96.64%
Unknown Impurities RRT~0.29 ([2]; 12 month): 0.13%
Unknown Impurities RRT~0.35 ([2]; 12 month): 0.05%
Unknown Impurities RRT~0.41 ([2]; 12 month): 0.47%
Unknown Impurities RRT~0.49 ([2]; 12 month): 0.64%
Unknown Impurities RRT~0.59 ([2]; 12 month): 0.27%
Unknown Impurities RRT~0.73 ([2]; 12 month): 0.98%
Unknown Impurities RRT~1.51 ([2]; 12 month): ND (ND = Not Detected, or <0.05%)
Unknown Impurities RRT~2.82 ([2]; 12 month): 0.19%
Unknown Impurities RRT~3.44 ([2]; 12 month): 0.28%
pH ([2]; 12 month): 8.97
Potency (Assay) ([2]; Initial): 100.3%
Purity (% Area) ([2]; Initial): 98.04%
Unknown Impurities RRT~0.29 ([2]; Initial): 0.11%
Unknown Impurities RRT~0.35 ([2]; Initial): ND (ND = Not Detected, or <0.05%)
Unknown Impurities RRT~0.41 ([2]; Initial): ND (ND = Not Detected, or <0.05%)
Unknown Impurities RRT~0.49 ([2]; Initial): 0.62%
Unknown Impurities RRT~0.59 ([2]; Initial): ND (ND = Not Detected, or <0.05%)
Unknown Impurities RRT~0.73 ([2]; Initial): 1.05%
Unknown Impurities RRT~1.51 ([2]; Initial): ND (ND = Not Detected, or <0.05%)
Unknown Impurities RRT~2.82 ([2]; Initial): ND (ND = Not Detected, or <0.05%)
Unknown Impurities RRT~3.44 ([2]; Initial): ND (ND = Not Detected, or <0.05%)
pH ([2]; Initial): 8.60
time by which crystallization observed in all sample vials [3]: ≤ 12 months
